Here are results for nine compounds from US20050119284A1, “ANTIVIRAL AGENTS AND METHODS OF USE” (priority 2003, published 2005).

The subject of data set [1] is bovine viral diarrhea virus (BVDV). The data set can be described thus: BVDV plaque assay in MDBK cells. It counts as cell-based. The conditions noted are these: for Antiviral effect on BVDV in the presence of thymidine (in words): 1 mM thymidine, cytotoxicity blocked; for Effect on viral yield: MDBK cells with BVDV, without thymidine; for Antiviral effect on BVDV replication (in words): increasing concentrations; for Decrease in BVDV replication / viral titers: in the presence of 1 mM thymidine; for Pfu/microL Avg: average of three; for Pfu/microL: individual replicates.

For data set [2], the system named is MDBK cells.
In data set [3] the test system is HCV 1 bN replicon. The conditions noted are these: 100 uM, 1 mM thymidine, 72 hours, Huh7.
The test system of data set [4] is MDBK cells. In words: Host cell growth / cytotoxicity, mock-infected MDBK cells counted by flow cytometry. The conditions noted are these: for Decrease in cell growth: confluent MDBK cells, concentrations used for the AZA/MPA comparison; for Cellular cytotoxicity / cell viability at antiviral concentrations: MDBK cells, concentrations assayed.
The conditions of data set [5]: given to mice; cited from earlier work.
The test system of data set [6] is HCV 1 bN replicon. Conditions: two recent studies; cited from earlier work.

Molecules are shown by their SMILES. Values joined by “and” are separate entries in the source; they are usually repeats but may differ in a detail not shown here. Identical values can stand only once. “Also recorded” adds a separate entry of the source.

For `Sc1ncnc2nc[nH]c12` [6-mercaptopurine], in data set [1], the “Antiviral effect on BVDV in the presence of thymidine (in words)” value (“Antiviral effect on BVDV in the presence” below) is given as “significantly reduced; also recorded: still possessed this antiviral effect”, the “Effect on viral yield” value is recorded as “decreased” and the “Decrease in BVDV replication / viral titers” value came out at 2 log. Moreover, the “Antiviral effect on BVDV replication (in words)” value in data set [1] (MDBK cells, listed as 6MP) was “sensitive; also recorded: specifically inhibited”. Moreover, in the data set with MDBK cells [2], the “Effect on cell growth” value was “decreased” and the “Effect on cell growth in the presence of thymidine” value is “neither azathioprine metabolite had an appreciable effect”.
On to `CSc1ncnc2nc[nH]c12` [6-methyl mercaptopurine], for which the “Effect on viral yield” value in data set [1] is on record as “no effect”. In the data set on MDBK cells [2], the “Effect on cell growth” value is reported as “no effect”.
In the case of `Nc1nc2nc[nH]c2c(=S)[nH]1` [6-thioguanine], in data set [1], the “Antiviral effect on BVDV in the presence” value is listed as “did not”, the “Effect on viral yield” value is recorded as “decreased” and the “Decrease in BVDV replication / viral titers” value is reported as “did not”. Also, in data set [1] (MDBK cells), the “Antiviral effect on BVDV replication (in words)” value is given as “no antiviral affect”. In addition, in the data set on MDBK cells [2], the “Effect on cell growth” value is “decreased” and the “Effect on cell growth in the presence of thymidine” value is “neither azathioprine metabolite had an appreciable effect”.
As for `OC[C@H]1O[C@@H](n2cnc3c(S)ncnc32)[C@H](O)[C@@H]1O` [6TI, 6 thioinosine], the “Antiviral properties relative to 6MP” value in data set [1] (BVDV replication, FIG. 11) is recorded as 2-3 fold.
`Cn1cnc([N+](=O)[O-])c1Sc1ncnc2nc[nH]c12` [AZA, azathioprine]: in data set [1], the “Antiviral effect on BVDV in the presence” value is “the majority of the antiviral effect was maintained; also recorded: still occurred” and the “Decrease in BVDV replication / viral titers” value is “two”. Besides, the “Inhibition of viral replication relative to inhibition of cell growth” value in data set [1] (MDBK cells, increasing AZA, 72 hours) is 10-100 fold. Also, the “Antiviral effect on BVDV replication (in words)” value in data set [1] (MDBK cells) is “sensitive; also recorded: specifically inhibited”. Also, the “Decrease of BVDV replication relative to MPA” value in data set [1] (at doses that achieved similar cytoxicity) is given as 10 fold. The “Virus produced per living cell, compared to cells grown in MPA” value in data set [1] (confluent MDBK cells, concentrations causing similar decrease in cell growth) is recorded as 12%. Moreover, the “Amount of BVDV virus generated, AZA versus MPA” value in data set [1] (confluent MDBK cells, doses allowing similar cellular growth, 72 hours) is on record as “significantly less”. In addition, in the data set on HCV 1 bN replicon [3], the “Amount of replicon compared to no drug” value is listed as roughly 50% and the “Increase in number of cycles to reach critical threshold (Ct) compared to no drug” value is on record as roughly 1 cycle. The “Decrease in cell growth” value in the data set with MDBK cells [4] was roughly 50%.
As for `COc1c(C)c2c(c(O)c1C/C=C(\C)CCC(=O)O)C(=O)OC2` [MPA, mycophenolate], the “Effect on cell growth” value with MDBK cells [2] is “killed all the cells”. Further, the “Decrease in cell growth” value in the data set on MDBK cells [4] is given as roughly 50%.
As for `CC(=O)/C=C\Sc1ncnc2[nH]cnc12` [cis-AVTP, cis-6-(2-acetylvinylthio) purine], in data set [1], the “Antiviral effect on BVDV in the presence” value was “still occurs”. Moreover, the “Pfu/microL Avg” value was determined as 2 Pfu/microL in data set [1] (10 microM) and 0.35 Pfu/microL in data set [1] (100 microM). In addition, the Pfu/microL in data set [1] (10 microM, listed as cis) was 1.4 Pfu/microL and 2.5 Pfu/microL and 2.1 Pfu/microL; in data set [1] (100 microM, listed as cis), 0.34 Pfu/microL and 0.35 Pfu/microL and 0.36 Pfu/microL. Besides, the “Antiviral effect on BVDV replication (in words)” value is “sensitive; also recorded: significant anti-viral activity” in data set [1] (MDBK cells) and “able to inhibit” in data set [1] (MDBK cells, listed as cisAVTP). Moreover, the “Levels of 6MP in the liver and gastrointestinal tract” value in data set [5] is on record as “high levels”. Further, in data set [5], the Side effects entry is on record as “no significant side effects”. Moreover, the “Cellular cytotoxicity / cell viability at antiviral concentrations” value is “without cellular cytoxicity” in the data set with MDBK cells [4] and “did not affect overall cell viability” in the data set on MDBK cells [4] (listed as cisAVTP).
On to `NC(=O)c1ncn([C@@H]2O[C@H](CO)[C@@H](O)[C@H]2O)n1` [ribavirin], for which the “Antiviral (Hepatitis GB) or anti-HCV replicon activity” value with HCV 1 bN replicon [6] is given as “weak”.
As for `CC(=O)/C=C/Sc1ncnc2[nH]cnc12` [trans-AVTP, trans-6-(2-acetylvinylthio) purine], the “Antiviral activity compared between isomers” value in data set [1] (10 uM) is listed as “less antiviral than cis-AVTP”. For the same compound, in data set [1] (10 microM), the “Pfu/microL Avg” value is on record as 65.67 Pfu/microL; the Pfu/microL is 53 Pfu/microL and 73 Pfu/microL and 71 Pfu/microL. Also, in data set [1] (100 microM), the “Pfu/microL Avg” value is 0.33 Pfu/microL; the Pfu/microL is 0.32 Pfu/microL and 0.38 Pfu/microL and 0.29 Pfu/microL.
